Source: patent US20260209234A1, “SUBSTITUTED DIHYDROPYRROLO[3,4-D]PYRIMIDINE COMPOUNDS AND THEIR USE IN TREATING MEDICAL CONDITIONS” (Karuna Therapeutics, Inc., priority 2022, published 2026)

What was measured:
[1] = test system: Sprague Dawley rats pre-treated with amphetamine; test: Amphetamine-evoked hyperlocomotion in rats; type: in vivo, rat; conditions: male Sprague Dawley rats; 0.5 mg/kg amphetamine s.c.; open field, distance traveled
Procedure: Animals: Adult male, Sprague Dawley rats (Envigo, Indianapolis, IN, USA) were housed in a colony maintained at 23° C. with 12 hour light/dark cycles (lights on at 0600 hour). All animals weighed 290-330 g at the beginning of the study and were equally divided into 5 groups (n=8 per group) and received one of the treatment conditions listed below. Animal protocols were approved by an Animal Care and Use Committee.
Behavioral Procedures: Studies were conducted in MedAssociates open field chambers (27.3 cm×27.3 cm×20.3 cm, MedAssociates, St. Albans, VT) in which movement was automatically tracked and recorded by 16 beam arrays. Administration pretreatment of the test article was determined to coincide with Tmax at the time of the amphetamine-evoked session with optimal route of administration. All groups were subcutaneously treated with 0.5 mg/kg amphetamine (AMP). […] Locomotor data (distance traveled) was recorded as 5-minute bins throughout the 90-minute session. […]
Statistical Analysis: Spontaneous locomotion (prior to AMP administration) was calculated as the total distance traveled during the first 30 minutes of the experimental session. AMP-evoked responses were calculated as the total distance traveled during the last 60 minutes of the experimental session which commenced immediately after AMP administration. Locomotor data were analyzed by a one-way ANOVA. […]

rM4 receptors = biological target: T1, rM4 receptors (Rattus norvegicus, UniProt P08485); test: Rat M4 PAM pERK assay; type: cell-based; conditions: CHO cells expressing rM4; EC20 of acetylcholine (10 nM final); TR-FRET
T1 construct: expressed in transfected cells; host or cells: CHO cells
T1 sequence (P08485 1-478): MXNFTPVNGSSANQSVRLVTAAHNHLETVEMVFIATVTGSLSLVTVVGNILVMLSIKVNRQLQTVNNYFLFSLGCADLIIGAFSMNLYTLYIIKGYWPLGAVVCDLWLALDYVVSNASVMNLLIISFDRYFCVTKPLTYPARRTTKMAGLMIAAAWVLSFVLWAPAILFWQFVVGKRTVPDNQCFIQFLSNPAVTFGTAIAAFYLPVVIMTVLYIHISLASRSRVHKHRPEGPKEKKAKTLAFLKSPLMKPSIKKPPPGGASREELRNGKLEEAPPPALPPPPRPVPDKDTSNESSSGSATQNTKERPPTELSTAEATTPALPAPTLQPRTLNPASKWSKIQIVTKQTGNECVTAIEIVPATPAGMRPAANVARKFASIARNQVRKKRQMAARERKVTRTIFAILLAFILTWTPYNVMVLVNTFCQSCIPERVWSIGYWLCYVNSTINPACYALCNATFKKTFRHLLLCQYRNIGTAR

| EC50 (rM4 receptors) | SMILES | Dose Amount of Compound at which rats displayed a reduction in amphetamine-evoked hyperlocomotion activity [1] |
| --- | --- | --- |
| 100 to 500 nM | COc1nc(C#N)nc2c1C(C)N(C(=O)CC1CN(c3ccnc(C(F)(F)F)c3)C1)C2 (single isomer, unassigned) [Compound I-6, 4-Methoxy-5-methyl-6-(2-(1-(2-(trifluoromethyl)pyridin-4-yl)azetidin-3-yl)acetyl)-6,7-dihydro-5H-pyrrolo[3,4-d]pyrimidine-2-carbonitrile] | >32 mg/kg |
| 100 to 500 nM | COc1nc(C)nc2c1C(C)N(C(=O)CC1CN(c3ccnc(C(F)(F)F)c3)C1)C2 (single isomer, unassigned) [Compound I-52, 1-(4-Methoxy-2,5-dimethyl-5,7-dihydro-6H-pyrrolo[3,4-d]pyrimidin-6-yl)-2-(1-(2-(trifluoromethyl)pyridin-4-yl)azetidin-3-yl)ethan-1-one] | 32 mg/kg |
